Results from US20240059688A1, “CONOLIDINE ANALOGUES AS SELECTIVE ACKR3 MODULATORS FOR THE TREATMENT OF CANCER” (Luxembourg Institute of Health (LIH), priority 2020, published 2024).

How the values were obtained:
Format in all cases: cell-based
ACKR3 [1] = target: T1, ACKR3 (Homo sapiens, UniProt P25106); assay: GPCR β-arrestin screening (PathHunter gpcrMAX/orphanMAX), ACKR3; conditions: conolidine 10 μM; over 240 receptors tested
Protocol: (§1) In an effort to identify the target of conolidine among the GPCR family, we undertook a large scale screening program using a β-arrestin recruitment assay based on β-galactosidase complementation (PathHunter, DiscoverX). Over 240 receptors were tested for their ability to be activated or inhibited by conolidine (10 μM) (data not shown). These included 168 GPCRs from the gpcrMAX panel, covering over 60 distinct receptor families such as adrenergic, dopamine, P2Y or serotonin and 74 GPCRs from the orphanMAX panel.

ADRA2B = target: T2, ADRA2B (Homo sapiens, UniProt P18089); assay: GPCR β-arrestin screening (PathHunter gpcrMAX/orphanMAX), ADRA2B; conditions: conolidine 10 μM
T2 sequence (P18089 1-450): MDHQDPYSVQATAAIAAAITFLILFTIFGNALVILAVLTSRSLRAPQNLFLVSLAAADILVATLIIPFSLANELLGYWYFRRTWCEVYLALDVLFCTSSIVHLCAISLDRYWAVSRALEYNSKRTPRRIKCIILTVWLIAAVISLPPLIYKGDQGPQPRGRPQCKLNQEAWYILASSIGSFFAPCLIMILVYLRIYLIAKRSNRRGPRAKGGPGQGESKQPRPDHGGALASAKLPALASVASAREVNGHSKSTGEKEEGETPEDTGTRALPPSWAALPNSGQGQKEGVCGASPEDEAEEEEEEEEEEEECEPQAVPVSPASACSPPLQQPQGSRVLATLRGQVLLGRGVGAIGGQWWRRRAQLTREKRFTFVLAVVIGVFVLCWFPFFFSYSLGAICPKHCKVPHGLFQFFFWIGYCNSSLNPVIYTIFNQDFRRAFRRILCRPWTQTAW
Protocol: as §1

ADRA2BC = target: T3, ADRA2BC (Homo sapiens, UniProt P18825); assay: GPCR β-arrestin screening (PathHunter gpcrMAX/orphanMAX), ADRA2BC; conditions: conolidine 10 μM
T3 sequence (P18825 1-462): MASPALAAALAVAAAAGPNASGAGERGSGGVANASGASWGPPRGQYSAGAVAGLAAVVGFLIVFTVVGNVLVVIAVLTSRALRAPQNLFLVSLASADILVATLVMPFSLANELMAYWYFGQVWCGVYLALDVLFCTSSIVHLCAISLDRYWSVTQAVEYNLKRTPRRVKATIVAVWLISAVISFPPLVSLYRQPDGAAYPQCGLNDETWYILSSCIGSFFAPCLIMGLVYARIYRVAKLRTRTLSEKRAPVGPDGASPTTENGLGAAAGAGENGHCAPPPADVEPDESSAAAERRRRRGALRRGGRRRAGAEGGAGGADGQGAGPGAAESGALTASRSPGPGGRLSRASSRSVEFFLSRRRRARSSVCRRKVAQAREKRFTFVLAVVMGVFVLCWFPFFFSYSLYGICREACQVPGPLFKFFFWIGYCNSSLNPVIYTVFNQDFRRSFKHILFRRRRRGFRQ
Protocol: as §1

HRH2 = HRH2 (Homo sapiens, UniProt P25021); assay: GPCR β-arrestin screening (PathHunter gpcrMAX/orphanMAX), HRH2; conditions: conolidine 10 μM
Protocol: as §1

[2] = target: T4, Mast cells G protein-coupled receptor-X2 (MRGPRX2) (Homo sapiens, UniProt Q96LB1); assay: GPCR β-arrestin screening (PathHunter gpcrMAX/orphanMAX), MRGPRX2; conditions: conolidine 10 μM
T4 sequence (Q96LB1 1-330): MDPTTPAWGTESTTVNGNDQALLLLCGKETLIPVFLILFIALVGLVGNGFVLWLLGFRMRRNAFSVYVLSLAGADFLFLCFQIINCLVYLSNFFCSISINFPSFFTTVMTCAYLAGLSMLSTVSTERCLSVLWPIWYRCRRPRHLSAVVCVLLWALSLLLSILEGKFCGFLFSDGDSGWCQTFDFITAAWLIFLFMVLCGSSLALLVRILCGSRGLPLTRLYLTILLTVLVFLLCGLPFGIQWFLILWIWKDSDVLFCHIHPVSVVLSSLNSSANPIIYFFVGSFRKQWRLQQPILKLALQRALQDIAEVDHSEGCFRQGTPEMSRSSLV
Protocol: as §1

[3] = target: cannabinoid receptor 2 (CNR2) (Homo sapiens, UniProt P34972); assay: GPCR β-arrestin screening (PathHunter gpcrMAX/orphanMAX), CNR2; conditions: conolidine 10 μM
Protocol: as §1

[4] = target: T5, melatonin receptor 1B (MTNR1B) (Homo sapiens, UniProt P49286); assay: GPCR β-arrestin screening (PathHunter gpcrMAX/orphanMAX), MTNR1B; conditions: conolidine 10 μM
T5 sequence (P49286 1-362): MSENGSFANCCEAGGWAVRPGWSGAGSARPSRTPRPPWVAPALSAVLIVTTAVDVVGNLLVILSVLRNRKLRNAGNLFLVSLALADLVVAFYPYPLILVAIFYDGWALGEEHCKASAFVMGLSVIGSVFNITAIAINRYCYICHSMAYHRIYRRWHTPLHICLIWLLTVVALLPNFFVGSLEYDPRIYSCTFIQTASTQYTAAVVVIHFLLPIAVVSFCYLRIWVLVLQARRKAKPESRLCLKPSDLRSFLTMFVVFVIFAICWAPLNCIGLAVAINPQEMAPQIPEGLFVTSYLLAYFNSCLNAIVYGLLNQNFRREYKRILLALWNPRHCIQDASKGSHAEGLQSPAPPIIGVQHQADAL
Protocol: as §1

ACKR3 [5] = target: T1, ACKR3; assay: ACKR3 internalization assay by flow cytometry in U87-ACKR3 cells; parameters: expressed in transfected cells; host or cells: U87-ACKR3 (ACKR3-negative U87 as control); conditions: 45 minutes at 37° C., anti-ACKR3 mAb 11G8, FIG. 6 section A
Protocol: For determination of receptor surface expression levels by flow cytometry, U87-ACKR3 cells were stimulated with WW-1 or WW-12 (50, 10, 5 1 μM) or BAM22 or ctrl peptides (1 μM) for 45 minutes at 37° C. The remaining surface-bound ligands were then removed by a brief wash with 150 mM NaCl, 50 mM glycine, pH 3 and twice with FACS buffer. Cell surface levels of ACKR3 were then measured by flow cytometry using a saturating concentration of receptor-specific mAb (clones 11G8) and a secondary phycoerythrin-conjugated F(ab′)2 fragment anti-mouse IgG (Jackson ImmunoResearch). Dead cells were excluded using the Zombie NIR fixable viability dye (BioLegend, catalog #423106, dilution 1:2000). Mean fluorescence intensity was quantified on a Novocyte Quanteon flow cytometer (ACEA Biosciences) using NovoExpress 1.4.1 (ACEA Biosciences).

T1 sequence (P25106 whole entry): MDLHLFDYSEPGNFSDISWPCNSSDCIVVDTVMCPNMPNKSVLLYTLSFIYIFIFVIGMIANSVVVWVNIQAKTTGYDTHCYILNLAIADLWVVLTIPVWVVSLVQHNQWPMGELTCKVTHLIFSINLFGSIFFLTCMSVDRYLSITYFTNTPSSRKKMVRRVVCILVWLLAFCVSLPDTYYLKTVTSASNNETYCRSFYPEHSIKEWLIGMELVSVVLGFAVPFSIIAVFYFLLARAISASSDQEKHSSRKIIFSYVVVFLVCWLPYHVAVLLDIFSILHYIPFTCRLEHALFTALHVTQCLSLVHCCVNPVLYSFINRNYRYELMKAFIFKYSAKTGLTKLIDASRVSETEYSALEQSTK
cannabinoid receptor 2 (CNR2), sequence (P34972 whole entry): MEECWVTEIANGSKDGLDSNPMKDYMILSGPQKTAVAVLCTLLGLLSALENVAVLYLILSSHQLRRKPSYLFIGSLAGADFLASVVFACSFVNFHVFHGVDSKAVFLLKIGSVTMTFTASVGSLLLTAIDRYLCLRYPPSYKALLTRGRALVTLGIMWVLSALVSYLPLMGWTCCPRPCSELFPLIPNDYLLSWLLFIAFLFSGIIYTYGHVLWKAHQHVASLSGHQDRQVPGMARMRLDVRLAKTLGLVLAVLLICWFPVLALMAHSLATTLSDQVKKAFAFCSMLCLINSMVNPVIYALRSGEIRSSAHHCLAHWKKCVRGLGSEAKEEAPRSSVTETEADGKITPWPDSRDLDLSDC
HRH2, sequence (P25021 whole entry): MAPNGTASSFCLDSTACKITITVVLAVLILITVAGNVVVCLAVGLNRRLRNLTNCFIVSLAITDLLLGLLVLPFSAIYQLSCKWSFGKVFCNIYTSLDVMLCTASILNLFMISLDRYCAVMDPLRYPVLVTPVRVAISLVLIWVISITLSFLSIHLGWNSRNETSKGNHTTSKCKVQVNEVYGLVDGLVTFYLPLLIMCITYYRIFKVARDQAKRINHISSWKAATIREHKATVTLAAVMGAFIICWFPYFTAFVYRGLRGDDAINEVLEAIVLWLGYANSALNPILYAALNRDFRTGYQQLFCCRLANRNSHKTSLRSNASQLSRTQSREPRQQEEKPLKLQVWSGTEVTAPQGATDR

response of ACKR3 in GPCR screening (ACKR3 [1])	activity towards ADRA2B in GPCR screening (ADRA2B)	activity towards ADRA2BC in GPCR screening (ADRA2BC)	activity towards HRH2 in GPCR screening (HRH2)	activation of MRGPRX2 in GPCR screening [2]	activation of CNR2 in GPCR screening [3]	activation of MTNR1B in GPCR screening [4]	ACKR3 internalization from the plasma membrane (ACKR3 [5])	SMILES
most responsive receptor	No activity was detected	No activity was detected	No activity was detected	only partially activated	only partially activated	only partially activated	able to induce receptor internalization	C/C=C1/CN2CC[C@H]1C(=O)c1[nH]c3ccccc3c1C2 [WW-1, (4E,5R)-4-ethylidene-1,4,5,7-tetrahydro-2,5-ethanoazocino[4,3-b]indol-6(3H)-one]
							able to induce receptor internalization	C/C=C1/CN(CCCCC)CC[C@H]1C(=O)c1cc2ccccc2[nH]1 [WW-12, [(3E,4R)-3-ethylidene-1-pentylpiperidin-4-yl](1H-indol-2-yl)methanone]
